Measurements reported in patent US11999758B2, “Inhibitors of the YAP/TAZ-TEAD interaction and their use in the treatment of cancer” (INVENTIVA, priority 2018, dated 2024).

Target: T1, YAP-TEAD interaction (Homo sapiens, UniProt P28347)
T1 construct: expressed in transfected cells; host or cells: HEK293 GripTite 293 MSR (Invitrogen R795-07)
Test: Cell-based TEAD-GAL4 transactivation assay (luciferase reporter)
Conditions: HEK293 cells transfected with TEAD1-Gal4, YAP mutant (S127A, S397A) and luciferase reporter, compounds 0.1 μM to 30 μM; for Emax: HEK293, 24 h, read-out: TEAD-GAL4 Transactivation activity Max Act; for IC50: 24 h
Experimental: To identify inhibitors of YAP-TEAD interaction, a transient transactivation assay was carried out on HEK293 cell line (HEK293 GripTite™ 293 MSR (Invitrogen R795-07)) using plasmids containing the full length TEAD1 sequences, the full length YAP mutant (S127A, S397A) and a luciferase gene reporter. All expression constructs were performed into a pSG5 backbone plasmid in which the SV40 promoter was replaced by the CMV promoter. The TEAD1 construct was prepared by cloning the full-length human TEAD1 cDNA in fusion with the Gal4 DNA Binding Domain (AA 1-148) into pSG5_CMV to create the TEAD1 (FL)_hum_pSG5Gal4_CMV. The full-length YAP mutant (S127A, S397A) was also cloned into pSG5_CMV to create the YAP (FL)_hum_pSG5_mutS127A_S397A_CMV. The reporter plasmid GAL4(5×RE)_TK(−105/+56)_pGL3-Basic contains 5 copies of the GAL4 responsive element (5′-TCGGAGGACAGTACTCC-3′) upstream of the thymidine kinase (TK) promoter (−105/+56) inserted in a pGL3-Basic vector. To evaluate the selectivity of our compounds in blocking the YAP-TEAD interaction, a counter-screening protein-protein interaction transactivation assay was also established. Briefly, two other expression plasmids, the pBD-P53 which expresses the P53 (AA 72-390) in fusion with Gal4 and the pAD-SV40T which expresses the SV40 large T antigen (AA 84-708,AgT), were created. HEK293 cells were seeded at 5×10^4 cells/well in 96 well plates (assay plates) in DMEM medium containing 4.5 g/L D-glucose, 10% high inactivated (HI) fetal bovine serum 1% Glutamax, 1% non-essential amino acid and 1% sodium pyruvate and 0.5% penicillin/streptomycin at 37° C. in a humidified atmosphere of 8% CO2. After 24 h, transfections were performed using Jet-PEI as transfectant (101B-010 Polyplus Transfection), according to the instructions of the manufacturer (N/P=10) and a ratio YAP/TEAD=10 (per well: 50 ng of YAP(FL), 5 ng of TEAD(FL) and 50 ng of reporter plasmid). Six hours after cell transfection, the plates (‘assay plate’) were washed with 100 μl PBS per well and cells were treated with compounds in semi-log from 0.1 μM to 30 μM or DMSO 0.5% as control in DMEM, 4.5 g/L D-Glucose without phenol red, 0.3% BSA, 1% glutamax, 1% NEAA, 1% sodium pyruvate. 24 h later, the luciferase activity was determined after addition of 100 μl of Steady Glo™ luciferase assay system (Promega E2550) according to the manufacturer's directions. Luciferase activity in cell extracts was measured by reading luminescence using the Envision device.
The cellular response was determined by fitting the concentration response curves using a 3-parameter curve fit equation and determining the concentration that inhibited the luciferase activity by 50%.

T1 sequence (P28347 whole entry): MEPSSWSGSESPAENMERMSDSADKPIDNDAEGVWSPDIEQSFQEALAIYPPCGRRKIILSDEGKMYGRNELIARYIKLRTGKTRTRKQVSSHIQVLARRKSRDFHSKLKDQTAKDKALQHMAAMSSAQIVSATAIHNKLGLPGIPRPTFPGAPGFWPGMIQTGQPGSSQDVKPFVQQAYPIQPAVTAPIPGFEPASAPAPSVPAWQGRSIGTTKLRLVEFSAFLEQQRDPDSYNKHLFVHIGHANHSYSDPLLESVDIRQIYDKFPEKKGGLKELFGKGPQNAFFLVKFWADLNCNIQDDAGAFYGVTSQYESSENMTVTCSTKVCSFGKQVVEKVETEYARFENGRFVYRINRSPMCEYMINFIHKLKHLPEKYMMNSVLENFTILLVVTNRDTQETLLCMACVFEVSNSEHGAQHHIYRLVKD

| Compound | Emax | IC50 |
| --- | --- | --- |
| CCN(/N=C/c1ccc2c(c1)COB2O)c1ncnc2sccc12 [Ex 40, N-ethyl-N-[(E)-(1-hydroxy-3H-2,1-benzoxaborol-5-yl)methyleneamino]-thieno[2,3-d]pyrimidin-4-amine] | 85% | 0.69 µM |
| CCN(/N=C/c1ccc2c(c1)COB2O)c1nc(C)nc2c(C)csc12 [Ex88, N-ethyl-N-[(E)-(1-hydroxy-3H-2,1-benzoxaborol-5-yl)methyleneamino]-2,7-dimethyl-thieno[3,2-d]pyrimidin-4-amine] | 80% | 0.63 µM |
| COc1cc(/C=N/N(C)c2ncnc3c(OC)cccc23)ccc1B(O)O [Ex 22, [2-methoxy-4-[(E)-[(8-methoxyquinazolin-4-yl)-methyl-hydrazono]-methyl]phenyl]boronic acid] | 97% | 2.57 µM |
| CC(C)CN(/N=C/c1ccc(B(O)O)c(Cl)c1)C1=NS(=O)(=O)c2ccccc21 [Ex 6, [2-chloro-4-[(E)-[(1,1-dioxo-1,2-benzothiazol-3-yl)-isobutyl-hydrazono]methyl]phenyl] boronic acid] | 62% |  |
| COc1cc(OC)c2ncnc(N(CC(C)C)/N=C/c3ccc(B(O)O)c(OC)c3)c2c1 [Ex 17, [4-[(E)-[(6,8-dimethoxyquinazolin-4-yl)-isobutyl-hydrazono]methyl]-2-methoxyphenyl]boronic acid] | 98% | 7.74 µM |
| CCN(/N=C/c1ccc(B(O)O)c(OC)c1)c1ncnc2ncsc12 [Ex64, [4-[(E)-[ethyl(thiazolo[4,5-d]pyrimidin-7-yl)hydrazono]methyl]-2-methoxy-phenyl]boronic acid] | 96% | 2.76 µM |
| COc1cc(C2=NN(c3ncnc4c(OC)cccc34)C(C)CC2)ccc1B(O)O (centres unmarked) [Ex 55, [2-methoxy-4-[2-(8-methoxyquinazolin-4-yl)-3-methyl-4,5-dihydro-3H-pyridazin-6-yl]phenyl]boronic acid] | 92% | 1.53 µM |
| CCN(/N=C/c1ccc(B(O)O)c(OC)c1)c1ncnc2c1ccn2C [Ex66, [4-[(E)-[ethyl-(7-methylpyrrolo[2,3-d]pyrimidin-4-yl)hydrazono]methyl]-2-methoxy-phenyl]boronic acid] | 87% | 2.15 µM |
| COc1ccc2ncnc(N(CC(C)C)/N=C/c3ccc(B(O)O)c(OC)c3)c2c1 [Ex 19, [4-[(E)-[isobutyl-(6-methoxyquinazolin-4-yl)hydrazono]methyl]-2-methoxyphenyl] boronic acid] | 97% | 3.36 µM |
| CCN(/N=C/c1ccc2c(c1)COB2O)c1ncnc2[nH]ncc12 [Ex86, N-ethyl-N-[(E)-(1-hydroxy-3H-2,1-benzoxaborol-5-yl)methyleneamino]-1H-pyrazolo[3,4-d]pyrimidin-4-amine] | 81% | 0.65 µM |
| CN1CCc2c1ncnc2N(C)/N=C/c1ccc2c(c1)COB2O [Ex106, N-[(E)-(1-hydroxy-3H-2,1-benzoxaborol-5-yl)methyleneamino]-N,7-dimethyl-5,6-dihydropyrrolo[2,3-d]pyrimidin-4-amine] | 83% | 1.06 µM |
| CCN(/N=C/c1ccc2c(c1)COB2O)c1ncnc2ncsc12 [Ex87, N-ethyl-N-[(E)-(1-hydroxy-3H-2,1-benzoxaborol-5-yl)methyleneamino]-thiazolo[4,5-d]pyrimidin-7-amine] | 82% | 0.59 µM |
| CCOc1cc(/C=N/N(CC(C)C)C2=NS(=O)(=O)c3ccccc32)ccc1B(O)O [Ex 14, [4-[(E)-[(1,1-dioxo-1,2-benzothiazol-3-yl)-isobutyl-hydrazono]methyl]-2-ethoxyphenyl]boronic acid] | 90% |  |
| CN(/N=C/c1ccc2c(c1)COB2O)c1ncnc2c1CC(=O)N2C1CCC1 [Ex111, 7-cyclobutyl-4-[[(E)-(1-hydroxy-3H-2,1-benzoxaborol-5-yl)methyleneamino]-methyl-amino]-5H-pyrrolo[2,3-d]pyrimidin-6-one] | 83% | 1.58 µM |
